Broadly, the IC50 is the concentration that inhibits the measured activity by half.

In the assay the target is T1, IRAK4 (Homo sapiens, UniProt Q9NWZ3).
T1 construct: purchased Carna 09-145
T1 sequence (Q9NWZ3 1-460): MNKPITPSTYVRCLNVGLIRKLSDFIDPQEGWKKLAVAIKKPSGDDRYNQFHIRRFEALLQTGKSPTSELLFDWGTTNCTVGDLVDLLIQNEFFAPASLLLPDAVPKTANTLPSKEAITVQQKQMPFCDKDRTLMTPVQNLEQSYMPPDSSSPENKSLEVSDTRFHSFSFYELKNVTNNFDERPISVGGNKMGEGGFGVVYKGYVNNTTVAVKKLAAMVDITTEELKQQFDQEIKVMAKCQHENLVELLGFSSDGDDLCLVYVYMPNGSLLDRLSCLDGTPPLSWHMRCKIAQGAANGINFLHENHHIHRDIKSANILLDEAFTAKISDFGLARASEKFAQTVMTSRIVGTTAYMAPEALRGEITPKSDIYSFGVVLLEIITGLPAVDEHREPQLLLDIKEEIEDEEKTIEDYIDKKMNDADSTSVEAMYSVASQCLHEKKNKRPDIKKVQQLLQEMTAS
As to the kind of experiment: Enzymatic experiment for IRAK4 kinase inhibitor (HTRF KinEASE-STK, phosphorylation of STK1). It counts as biochemical. The note with it: 6 nM IRAK4, 0.4 uM STK1, 80 uM ATP, 37° C. for 90 min, read-out: Relative IC50. How it is done:
Experimental materials: IRAK4 recombinant human […], purchased from Carna (Cat #09-145); ATP, purchased from Sigma (Cat #A7699-5G); Compound 26, purchased from Merck Millipore (Cat #531237); and HTRF KinEASE-STK Si kit, purchased from Cisbio (Cat #62ST1PEC).
Experimental method: Phosphorylation of STK1 can be detected using an HTRF assay kit. The experimental reaction was carried out in a 384-well plate (Greiner, Cat #784075) with a total reaction system of 20 uL. The reaction system mainly comprised 1× kinase buffer, […], […], 0.4 uM STK1 and 80 uM ATP. The target product prepared in Example 1 was serially diluted with DMSO at 10 concentration points, and transferred to an experimental assay plate at 100 nL. The reaction was started after 6 nM IRAK4 was added and stopped by adding a detection reagent (0.25×STK Antibody-Cryptate, 25 nM Streptavidin-XL665) after being in process at 37° C. for 90 min. After standing at room temperature for 60 min, an FRET signal was read on a Spark 10M or envision plate reader. (HTRF 665/615=signal value at 665 nm/signal value at 615 nm).
Data analysis: signal ratio (665/615) was converted to a percent rejection. Inhibition %=(max−sample)/(max−min)×100. “min” represents a ratio of signal values (665/615) for control well without enzyme, and “max” represents a ratio of signal values (665/615) for control well with […]. […] values for compounds were calculated by XLFit in the Excel. Y=Bottom+(Top−Bottom)/(1+(IC50/X)^HillSlope) Equation: […]
Consider `CN(C)C1CCC(c2cn3c(cnc4[nH]cc(C5CCOCC5)c43)n2)CC1` (centres unmarked), for which the IC50 is < 100 nM.

Take `c1[nH]c2ncc3nc(C4CCNCC4)cn3c2c1C1CCOCC1`: the IC50 is < 100 nM.

In the case of `NC1CCC(c2cn3c(cnc4[nH]cc(C5CCOCC5)c43)n2)CC1` (centres unmarked), the IC50 was < 100 nM.

Consider `c1[nH]c2ncc3nc(C4CCCCC4)cn3c2c1C1CCOCC1`, for which the IC50 is < 100 nM.

`CC1CC(c2cn3c(cnc4[nH]cc(C5CCOCC5)c43)n2)CCN1` (centres unmarked): the IC50 is 100 to 1000 nM.

For `c1[nH]c2ncc3nc(C4CCC(N5CCOCC5)CC4)cn3c2c1C1CCOCC1` (centres unmarked), the IC50 was 100 to 1000 nM.

In the case of `CC1CNCCC1c1cn2c(cnc3[nH]cc(C4CCOCC4)c32)n1` (centres unmarked), the IC50 was < 100 nM.

As for `c1[nH]c2ncc3nc(C4CCCNC4)cn3c2c1C1CCOCC1` (centres unmarked), the IC50 was < 100 nM.

For the compound `CN1CCC(c2cn3c(cnc4[nH]cc(C5CCOCC5)c43)n2)CC1`, the IC50 was 100 to 1000 nM.

For the compound `CCN1CCC(c2cn3c(cnc4[nH]cc(C5CCOCC5)c43)n2)CC1`, the IC50 lay within 100 to 1000 nM.

In the case of `CC(=O)N1CCC(c2cn3c(cnc4[nH]cc(C5CCOCC5)c43)n2)CC1`, the half-inhibitory concentration (IC50) is > 1000 nM.

In the case of `c1[nH]c2ncc3nc(C4CCN(C5COC5)CC4)cn3c2c1C1CCOCC1`, the IC50 was > 1000 nM.

With `CN1CCC(c2cn3c(cnc4[nH]cc(C5CCOCC5)c43)n2)C1` (centres unmarked), the IC50 is 100 to 1000 nM.

As for `c1[nH]c2ncc3nc(C4CCC5(CC4)CNC5)cn3c2c1C1CCOCC1`, the IC50 was < 100 nM.

Take `CN1CCC(c2cn3c(cnc4[nH]cc(C5CCC(C(N)=O)CC5)c43)n2)CC1` (centres unmarked): the IC50 was > 1000 nM.

As for `c1[nH]c2ncc3nc(C4CCOCC4)cn3c2c1C1CCOCC1`, the IC50 lay in the range of 100 to 1000 nM.

As for `c1[nH]c2ncc3[nH]c(C4CCCCC4)nc3c2c1C1CCOCC1`, the IC50 fell in the range of 100 to 1000 nM.

Consider `Cn1c(C2CCCCC2)nc2c3c(C4CCOCC4)c[nH]c3ncc21`, for which the half-inhibitory concentration (IC50) lay within 100 to 1000 nM.

`NC1CCC(c2nc3c(cnc4[nH]cc(C5CCOCC5)c43)[nH]2)CC1` (centres unmarked) [drawing 311]: the IC50 is < 100 nM.

Take `NC1CCC(c2nc3c(cnc4[nH]cc(C5CCOCC5)c43)[nH]2)CC1` (centres unmarked) [drawing 312]: the IC50 was < 100 nM.

The values above are taken from patent US12582650B2, “IRAK4 kinase inhibitor and preparation method therefor” (ZHUHAI YUFAN BIOTECHNOLOGIES CO., LTD, priority 2019, dated 2026).
